Assay results from patent publication US10942183B2, “Methods of detecting progesterone receptor and of detecting an expression level” (REGENTS OF THE UNIVERSITY OF MINNESOTA, priority 2017, dated 2021).

Tests used:
[1] = test system: SLC37A2 expression in MCF-7 cells; experiment: SLC37A2 mRNA expression by RT-qPCR in MCF-7 cells; assay type: cell-based
Protocol: (§1) For reverse transcription quantitative polymerase chain reaction (RT-qPCR) assays, 5×10^5 cells/well were plated in six-well dishes, serum starved in modified IMEM for one day before treatment. RNA was extracted using TriPure reagent (Roche, Basel, Switzerland) and cDNA was created using the qScript cDNA SuperMix kit (Quanta Biosciences, Beverly, Mass.). Relative expression levels were determined by qPCR assays performed on a Roche Light-Cycler II using SYBR green master-mix (Roche, Basel, Switzerland). Target gene quantification levels were normalized to the expression of standard housekeeper genes: TBP, ACTB, 18S, and/or GAPDH.
(§2) PR cooperation with one or more RUNX factors may be a mechanism for promoter selection by uniquely modified receptors. The family of RUNX transcription factors (RUNX1, 2, and 3) has complex roles in development and tumor formation with both tumor suppressive and tumor-promoting activities. […] From the GSEA results, SLC37A2, a candidate PR target gene containing multiple RUNX2 binding motifs immediately upstream and within the gene, was identified (FIG. 7A). SLC37A2 is a glucose-6-phosphate transporter expressed in monocytes as well as breast and cervical tissues. […] PR/progestin-dependent regulation of SLC37A2 mRNA expression in multiple cell line models was thus measured. […]

[2] = test system: SLC37A2 expression in BT474 cells; experiment: SLC37A2 mRNA expression by RT-qPCR in BT474 cells; assay type: cell-based; conditions: unmodified BT474 cells, progestin plus onapristone
Protocol: as §1, §2

Compound	effect on progestin-upregulated SLC37A2 expression ([1]; MCF-7 overexpressing K388R PR, progestin plus mifepristone)	agonist activity on SLC37A2 expression, antiprogestin alone ([1]; cells expressing KR PRs, RU486 treatment alone)	effect on progestin-stimulated SLC37A2 mRNA expression [2]
CC#C[C@]1(O)CC[C@H]2[C@@H]3CCC4=CC(=O)CCC4=C3[C@@H](c3ccc(N(C)C)cc3)C[C@@]21C [mifepristone]	blocked	weak partial agonist activity	
CN(C)c1ccc([C@H]2C[C@]3(C)[C@@H](CC[C@]3(O)CCCO)[C@@H]3CCC4=CC(=O)CCC4=C32)cc1 [onapristone]			effectively blocked
